The target of series [1] is T1, Solute carrier family 12 member 5 (Homo sapiens, UniProt Q9H2X9).
T1 sequence (Q9H2X9 whole entry): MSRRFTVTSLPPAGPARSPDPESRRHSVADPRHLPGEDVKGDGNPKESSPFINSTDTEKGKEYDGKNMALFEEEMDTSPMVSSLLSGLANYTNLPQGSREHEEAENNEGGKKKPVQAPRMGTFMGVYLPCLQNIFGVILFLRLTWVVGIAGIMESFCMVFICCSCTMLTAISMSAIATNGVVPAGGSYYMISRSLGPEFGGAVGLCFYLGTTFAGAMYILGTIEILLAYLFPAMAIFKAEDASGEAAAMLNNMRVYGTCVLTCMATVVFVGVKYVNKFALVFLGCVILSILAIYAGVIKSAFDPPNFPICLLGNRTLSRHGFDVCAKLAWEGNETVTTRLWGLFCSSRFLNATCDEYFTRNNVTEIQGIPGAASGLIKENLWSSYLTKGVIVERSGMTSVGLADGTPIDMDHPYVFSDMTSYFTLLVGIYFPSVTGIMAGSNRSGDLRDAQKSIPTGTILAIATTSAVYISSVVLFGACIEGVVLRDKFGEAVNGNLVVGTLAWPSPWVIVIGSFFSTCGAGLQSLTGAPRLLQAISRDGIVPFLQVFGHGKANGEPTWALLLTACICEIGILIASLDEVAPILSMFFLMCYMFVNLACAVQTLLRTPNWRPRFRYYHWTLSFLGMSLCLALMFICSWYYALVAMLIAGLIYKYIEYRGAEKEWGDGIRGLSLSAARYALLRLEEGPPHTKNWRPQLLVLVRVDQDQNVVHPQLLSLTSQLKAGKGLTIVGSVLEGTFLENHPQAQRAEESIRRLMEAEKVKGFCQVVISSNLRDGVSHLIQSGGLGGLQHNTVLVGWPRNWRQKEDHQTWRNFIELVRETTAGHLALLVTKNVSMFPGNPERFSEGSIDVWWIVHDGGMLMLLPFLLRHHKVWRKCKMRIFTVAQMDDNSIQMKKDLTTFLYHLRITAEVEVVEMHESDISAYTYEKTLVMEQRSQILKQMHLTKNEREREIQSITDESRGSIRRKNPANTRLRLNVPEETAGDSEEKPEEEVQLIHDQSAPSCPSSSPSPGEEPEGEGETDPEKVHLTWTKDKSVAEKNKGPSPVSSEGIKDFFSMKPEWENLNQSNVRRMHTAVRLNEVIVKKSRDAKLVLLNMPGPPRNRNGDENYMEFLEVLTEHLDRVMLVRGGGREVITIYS
Put plainly: Antagonist activity at KCC2 expressed in human HEK293 cells assessed as decrease in Tl-stimulated fluorescence increase after 8 mins by fluorescence analysis. In kind it is functional, cell-based.

The target in series [2] is T2, Solute carrier family 12 member 5 (Homo sapiens) (UniProt Q9H2X9).
T2 sequence (whole entry): T1 sequence (Q9H2X9 whole entry)
Put plainly: Antagonist activity at KCC2 expressed in human HEK293 cells assessed as decrease in Tl-stimulated fluorescence increase at 2 uM after 8 mins by fluorescence analysis. Format: functional, cell-based.

In series [3] the target is T3, Solute carrier family 12 member 2 (Homo sapiens) (UniProt P55011).
T3 sequence (whole entry): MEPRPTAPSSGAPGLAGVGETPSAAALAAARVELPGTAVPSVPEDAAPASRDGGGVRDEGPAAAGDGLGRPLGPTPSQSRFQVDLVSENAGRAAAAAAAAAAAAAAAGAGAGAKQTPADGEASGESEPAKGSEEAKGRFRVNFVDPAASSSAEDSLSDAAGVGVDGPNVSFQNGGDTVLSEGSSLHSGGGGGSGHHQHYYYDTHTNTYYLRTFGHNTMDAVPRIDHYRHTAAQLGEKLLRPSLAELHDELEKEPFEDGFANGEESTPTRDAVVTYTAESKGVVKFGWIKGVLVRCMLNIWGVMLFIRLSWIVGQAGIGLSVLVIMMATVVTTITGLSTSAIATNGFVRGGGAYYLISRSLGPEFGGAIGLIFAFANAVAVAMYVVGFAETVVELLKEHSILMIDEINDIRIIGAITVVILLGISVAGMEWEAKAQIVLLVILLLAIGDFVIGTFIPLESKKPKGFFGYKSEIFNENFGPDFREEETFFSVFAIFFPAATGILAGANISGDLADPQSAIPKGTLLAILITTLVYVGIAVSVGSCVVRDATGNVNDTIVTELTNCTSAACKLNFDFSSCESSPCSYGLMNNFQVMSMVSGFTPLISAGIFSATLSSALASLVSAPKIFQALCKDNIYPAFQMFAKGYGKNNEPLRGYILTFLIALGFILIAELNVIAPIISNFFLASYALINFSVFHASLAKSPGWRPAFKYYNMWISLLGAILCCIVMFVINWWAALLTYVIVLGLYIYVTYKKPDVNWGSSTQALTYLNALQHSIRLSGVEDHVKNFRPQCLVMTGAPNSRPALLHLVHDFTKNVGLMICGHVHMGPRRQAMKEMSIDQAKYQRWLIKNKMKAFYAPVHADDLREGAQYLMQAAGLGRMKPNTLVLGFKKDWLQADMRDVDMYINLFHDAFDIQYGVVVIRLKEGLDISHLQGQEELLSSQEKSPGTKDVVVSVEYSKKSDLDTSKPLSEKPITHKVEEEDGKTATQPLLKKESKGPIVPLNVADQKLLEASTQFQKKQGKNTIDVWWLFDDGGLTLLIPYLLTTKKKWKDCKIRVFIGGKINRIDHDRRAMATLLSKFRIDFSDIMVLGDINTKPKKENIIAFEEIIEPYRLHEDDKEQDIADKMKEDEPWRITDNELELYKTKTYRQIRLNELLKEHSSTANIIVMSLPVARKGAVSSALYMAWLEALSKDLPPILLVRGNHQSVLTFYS
Put plainly: Antagonist activity at […] expressed in human HEK293 cells assessed as [86Rb] uptake at 50 uM after 30 mins by scintillation counting. In kind it is functional, cell-based. Set-up: scale not given: the % may be the effect or the level left.

Series [4] deals with T2, Solute carrier family 12 member 5 (Homo sapiens). Put plainly: Antagonist activity at KCC2 expressed in human HEK293 cells assessed as [86Rb] uptake after 30 mins by scintillation counting. In kind it is functional, cell-based.
Series [5] is described as follows: Volume of distribution at steady state in rat at 1 mg/kg, iv. The note with it: in vivo, read-out: Vdss. The arrangement: dose 1 mg/kg, route intravenous. In kind it is ADME, organism-based.
In series [6] the target is T4, Cytochrome P450 1A2 (Homo sapiens, UniProt P05177).
T4 sequence (P05177 whole entry): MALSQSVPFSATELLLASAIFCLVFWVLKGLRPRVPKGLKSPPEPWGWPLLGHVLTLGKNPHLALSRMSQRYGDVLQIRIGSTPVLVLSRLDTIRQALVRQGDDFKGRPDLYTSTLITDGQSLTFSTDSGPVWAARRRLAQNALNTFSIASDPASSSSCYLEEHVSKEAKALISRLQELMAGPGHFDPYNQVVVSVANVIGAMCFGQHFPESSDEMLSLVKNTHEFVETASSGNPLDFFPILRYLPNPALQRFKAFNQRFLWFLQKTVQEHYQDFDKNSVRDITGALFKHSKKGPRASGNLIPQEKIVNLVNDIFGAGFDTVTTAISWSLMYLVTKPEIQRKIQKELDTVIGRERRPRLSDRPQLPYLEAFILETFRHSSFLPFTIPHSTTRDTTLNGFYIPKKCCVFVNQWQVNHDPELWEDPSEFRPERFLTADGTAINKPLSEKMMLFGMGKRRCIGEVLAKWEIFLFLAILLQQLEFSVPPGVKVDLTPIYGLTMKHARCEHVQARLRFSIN
Put plainly: Inhibition of CYP1A2 in human liver microsomes. In kind it is ADME, Microsome.

The target in series [7] is Cytochrome P450 2C9 (Homo sapiens, UniProt P11712). Put plainly: Inhibition of CYP2C9 in human liver microsomes. In kind it is ADME, Microsome. In general terms: Liver microsomes are vesicles of endoplasmic reticulum, rich in cytochrome P450 enzymes.
Chain of Cytochrome P450 2C9 (P11712 whole entry): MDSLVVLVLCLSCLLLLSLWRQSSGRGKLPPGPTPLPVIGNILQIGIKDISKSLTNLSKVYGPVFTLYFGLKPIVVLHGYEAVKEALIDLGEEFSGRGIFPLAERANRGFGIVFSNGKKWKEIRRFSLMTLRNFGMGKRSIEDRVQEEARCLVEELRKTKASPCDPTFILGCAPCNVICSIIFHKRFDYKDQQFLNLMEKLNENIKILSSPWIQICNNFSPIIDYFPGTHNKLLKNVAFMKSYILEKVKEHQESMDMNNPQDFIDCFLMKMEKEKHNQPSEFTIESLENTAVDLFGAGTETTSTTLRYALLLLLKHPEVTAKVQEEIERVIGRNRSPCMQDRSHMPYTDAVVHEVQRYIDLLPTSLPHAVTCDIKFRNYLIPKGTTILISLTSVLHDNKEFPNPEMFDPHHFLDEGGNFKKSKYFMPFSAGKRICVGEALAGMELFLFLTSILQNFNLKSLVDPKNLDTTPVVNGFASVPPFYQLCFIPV
Series [8] concerns the target T5, Solute carrier family 12 member 2 (Homo sapiens, UniProt P55011).
T5 sequence (P55011 whole entry): T3 sequence (whole entry)
The experiment in a line: Antagonist activity at […] expressed in human HEK293 cells assessed as [86Rb] uptake after 30 mins by scintillation counting. Format: functional, cell-based.

Series [9] has as its system Plasma. Put plainly: Fraction unbound in human plasma. In kind it is ADME, cell-free.
The target of series [10] is Cytochrome P450 2D6 (Homo sapiens, UniProt P10635). Put plainly: Inhibition of CYP2D6 in human liver microsomes. In kind it is ADME, Microsome.
Chain of Cytochrome P450 2D6 (P10635 whole entry): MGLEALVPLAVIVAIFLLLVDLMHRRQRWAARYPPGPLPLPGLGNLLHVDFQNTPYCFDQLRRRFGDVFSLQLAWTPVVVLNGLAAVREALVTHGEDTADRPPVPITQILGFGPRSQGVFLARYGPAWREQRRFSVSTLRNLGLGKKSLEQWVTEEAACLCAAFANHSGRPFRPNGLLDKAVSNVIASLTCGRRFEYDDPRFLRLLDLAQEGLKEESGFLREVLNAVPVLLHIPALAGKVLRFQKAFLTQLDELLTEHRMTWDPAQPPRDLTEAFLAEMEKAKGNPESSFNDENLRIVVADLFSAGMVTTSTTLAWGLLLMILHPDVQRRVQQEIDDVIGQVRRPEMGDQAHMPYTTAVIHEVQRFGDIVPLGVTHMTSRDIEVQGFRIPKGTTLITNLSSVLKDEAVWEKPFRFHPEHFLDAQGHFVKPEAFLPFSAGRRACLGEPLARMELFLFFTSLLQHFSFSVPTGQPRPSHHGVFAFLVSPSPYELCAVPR
The test system of series [11] is Plasma. The experiment in a line: Fraction unbound in rat plasma. In kind it is ADME, cell-free.
Series [12] concerns the target Cytochrome P450 3A4 (Homo sapiens, UniProt P08684). The experiment in a line: Inhibition of CYP3A4 in human liver microsomes. In kind it is ADME, Microsome.
Series [13] can be described thus: Half life in rat at 1 mg/kg, iv. The arrangement: dose 1 mg/kg, route intravenous. The following applies: in vivo. In kind it is ADME, organism-based.
Series [14] is described as follows: Clearance in rat at 1 mg/kg, iv. In kind it is ADME, organism-based. The arrangement: dose 1 mg/kg, route intravenous. The note with it: in vivo.
Series [15] can be described thus: Metabolic stability of the compound in rat plasma assessed as compound remaining after 1 hr. In kind it is ADME, cell-free. The following applies: read-out: Stability.
Series [16] deals with hERG (KCNH2) (Homo sapiens, UniProt Q12809). Put plainly: Inhibition of human Erg at 10 uM.
Chain of hERG (KCNH2) (Q12809 whole entry): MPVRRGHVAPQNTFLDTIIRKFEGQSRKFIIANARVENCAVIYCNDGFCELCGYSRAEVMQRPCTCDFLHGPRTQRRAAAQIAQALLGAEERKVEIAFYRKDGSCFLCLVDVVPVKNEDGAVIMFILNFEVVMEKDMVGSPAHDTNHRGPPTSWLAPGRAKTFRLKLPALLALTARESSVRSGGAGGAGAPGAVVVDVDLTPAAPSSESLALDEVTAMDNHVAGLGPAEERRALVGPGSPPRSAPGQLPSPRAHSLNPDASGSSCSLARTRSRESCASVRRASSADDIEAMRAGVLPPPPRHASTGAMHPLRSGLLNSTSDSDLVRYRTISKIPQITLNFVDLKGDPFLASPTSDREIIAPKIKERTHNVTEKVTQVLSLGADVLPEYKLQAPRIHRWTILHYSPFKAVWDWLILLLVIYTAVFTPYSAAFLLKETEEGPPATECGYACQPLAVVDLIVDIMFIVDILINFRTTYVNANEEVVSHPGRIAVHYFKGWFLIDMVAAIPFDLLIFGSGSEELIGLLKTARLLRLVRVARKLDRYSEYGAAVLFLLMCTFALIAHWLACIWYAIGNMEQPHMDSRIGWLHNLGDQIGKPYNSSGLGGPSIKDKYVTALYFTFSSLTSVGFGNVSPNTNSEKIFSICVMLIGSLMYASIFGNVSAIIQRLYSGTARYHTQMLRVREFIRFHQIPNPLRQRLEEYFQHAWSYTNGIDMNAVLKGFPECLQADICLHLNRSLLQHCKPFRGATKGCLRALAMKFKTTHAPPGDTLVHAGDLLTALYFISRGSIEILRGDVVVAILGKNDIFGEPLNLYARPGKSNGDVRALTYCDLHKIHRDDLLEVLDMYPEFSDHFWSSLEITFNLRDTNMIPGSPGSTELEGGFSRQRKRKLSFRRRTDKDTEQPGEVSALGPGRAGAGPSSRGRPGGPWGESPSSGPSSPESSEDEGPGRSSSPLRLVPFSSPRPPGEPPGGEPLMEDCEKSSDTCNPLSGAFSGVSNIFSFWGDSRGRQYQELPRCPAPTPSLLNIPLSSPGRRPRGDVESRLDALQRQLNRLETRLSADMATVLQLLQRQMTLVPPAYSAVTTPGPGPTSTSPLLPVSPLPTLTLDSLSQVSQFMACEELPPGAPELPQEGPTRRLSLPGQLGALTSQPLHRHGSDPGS
A short description of series [17]: Inhibition of L-type calcium channel at 10 uM.

The structures appear in SMILES notation. Active and inactive are the calls of the source. The calls are words filed in the database; no cut-off is given here.

Broadly, the IC50 is the midpoint of a concentration-inhibition curve. The term inhibition denotes the drop in the measured response relative to a control, in per cent. In general, half-life refers to the time in which the quantity being followed falls by half. Broadly, the clearance is a measure of how efficiently the substance is removed, as volume per time.

Chain of Cytochrome P450 3A4 (P08684 whole entry): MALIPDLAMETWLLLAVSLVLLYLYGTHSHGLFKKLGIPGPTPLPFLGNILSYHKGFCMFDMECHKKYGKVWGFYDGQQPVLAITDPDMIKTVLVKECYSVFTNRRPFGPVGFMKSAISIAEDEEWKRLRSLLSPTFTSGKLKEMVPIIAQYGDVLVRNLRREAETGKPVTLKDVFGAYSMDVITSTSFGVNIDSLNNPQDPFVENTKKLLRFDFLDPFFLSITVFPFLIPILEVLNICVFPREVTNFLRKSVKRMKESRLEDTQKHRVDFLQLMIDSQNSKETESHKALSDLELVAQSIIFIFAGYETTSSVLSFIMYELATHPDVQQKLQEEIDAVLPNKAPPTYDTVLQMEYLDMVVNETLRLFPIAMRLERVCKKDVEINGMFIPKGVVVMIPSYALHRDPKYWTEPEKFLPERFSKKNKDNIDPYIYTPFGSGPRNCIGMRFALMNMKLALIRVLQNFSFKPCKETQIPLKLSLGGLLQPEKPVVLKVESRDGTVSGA

Consider `CCC(Sc1ccc(-c2ccccc2)nn1)C(=O)N(c1nc(C)cs1)C1CC1` (racemic) [listing 1 of 2 here], for which the IC50 in series [1] came out at 0.756 µM.

Consider `Cc1csc(N(C)C(=O)C(C)Sc2ccc(-c3ccccc3)nn2)n1` (racemic), for which, in series [2], the inhibition was 46%.

With `CCC(Sc1ccc(-c2ccccc2)nn1)C(=O)N(c1nc(C)cs1)C1CC1` (single isomer, unassigned; (-)), the inhibition in [2] amounted to 40%.

In the case of `Cc1csc(N(C(=O)CSc2ccc(-c3ccccc3)nn2)C2CCC2)n1`, the 50% inhibitory concentration (IC50) in series [1] stood at 0.177 µM.

As for `O=C(Cn1cnc2c(nnn2Cc2ccccc2)c1=O)c1ccc(Cl)cc1`, in [3], the Activity is 40%. Further, in series [1], the IC50 turned out to be 1.2 µM.

As to `CCC(Sc1ccc(-c2ccccc2)nn1)C(=O)N(C)c1nc(C)cs1` (racemic), the inhibition in series [2] stood at 27%.

Consider `Cc1csc(N(C)C(=O)CSc2ccc(-c3ccccc3)nn2)n1`, for which the outcome in [4] was Active. The Vd in [5] amounted to 5 L/kg. Besides, the IC50 is greater than 30 µM in series [6]; greater than 30 µM in series [7]; greater than 50 µM in series [8]; 24 µM in [10]; 0.537 µM in [1]; greater than 30 µM in series [12]. In addition, the inhibition in series [2] came out at 82%. Also, the Fu in [9] was found to be 2%; in series [11], 1%. For the same compound, the half-life in series [13] worked out at 26 min. Further, in [14], the clearance is 11.1 L/h/kg.

As for `CCN(C(=O)C(C)Sc1ccc(-c2ccccc2)nn1)c1nc(C)cs1` (racemic), the inhibition in series [2] amounted to 57%.

In the case of `Cc1csc(NC(=O)CSc2ccc(-c3ccccc3)cn2)n1`, the IC50 in series [1] is 6.9 µM.

On to `CCC(Sc1ccc(-c2ccccc2)nn1)C(=O)N(c1nc(C)cs1)C1CC1` (single isomer, unassigned; (+)), for which the half-maximal inhibitory concentration (IC50) in series [1] came out at 0.385 µM.

As for `Cc1csc(N(C(=O)CSc2ccc(-c3ccccc3)nn2)C2CC2)n1`, the result in [4] was Active. Also, the Vd in series [5] stood at 0.4 L/kg. The half-maximal inhibitory concentration (IC50) in series [6] is 20 µM; in [7], greater than 30 µM; in series [10], greater than 30 µM; in series [1] it was 0.061 µM. For the same compound, in series [15], the remaining at 1 h came to 6%. The compound also had a half-life in series [13] of 9 min. The clearance in series [14] amounted to 3.42 L/h/kg.

Turning to `Cc1csc(N(C)C(=O)CSc2ccc(-c3ccccc3)cn2)n1`, in series [1], the IC50 came to 2.9 µM.

As to `Cc1csc(N(C(=O)CSc2ccc(-c3ccccc3)nn2)C2CCCC2)n1`, the IC50 in series [1] amounted to 1.06 µM.

Turning to `Cc1csc(NC(=O)CSc2ccc(-c3ccccc3)nn2)n1`, the inhibition at 10 µM in series [16] is greater than 50%. Also, the results for the IC50 in series [8] and in series [1] were greater than 50 µM and 0.568 µM, respectively. In addition, in series [17], the inhibition is greater than 50%.

`CCC(Sc1ccc(-c2ccccc2)nn1)C(=O)N(c1nc(C)cs1)C1CC1` (racemic) [listing 2 of 2 here]: the inhibition in series [2] stood at 84%.

For `CCC(Sc1ccc(-c2ccccc2)nn1)C(=O)N(CC)c1nc(C)cs1` (racemic), the inhibition in [2] was found to be 45%.

(Values after ChEMBL document CHEMBL2046355 (Bioorg Med Chem Lett, 2012).)
